Reference: PMC8244865, “Recruitment of phospholipase Cγ1 to the non-structural membrane protein pK15 of Kaposi Sarcoma-associated herpesvirus promotes its Src-dependent phosphorylation” (PLoS Pathogens, 2021)

Columns and labels:
PLCγ1 cSH2 = target: T1, PLCγ1 cSH2 (Homo sapiens, UniProt P19174); assay: 1H,15N HSQC NMR titration, PLCγ1 cSH2; format: binding; settings: 1H-15N HSQC titration, 600 MHz, 298 K, 100 μM protein, 100 mM MES, 150 mM NaCl, 3 mM TCEP, pH 6.5
T1 construct: cSH2 (668–790): 166 ± 30 nM; thioredoxin (pETM22 fusion, purified on Ni column) (N, cleaved yes); made in house; host or cells: E. coli BL21(DE3)
T1 sequence (P19174 668-790): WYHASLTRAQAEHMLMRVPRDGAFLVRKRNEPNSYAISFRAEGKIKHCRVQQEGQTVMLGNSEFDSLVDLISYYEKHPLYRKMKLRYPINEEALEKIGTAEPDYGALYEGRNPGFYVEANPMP
Procedure: Fig 5 Affinity of pK15 peptide for PLCγ1 tSH2 or individual SH2 domains. (A) Binding curves of several PLCγ1 fragments in the presence of 200 nM 5,6-FAM-labelled pK15 (12mer). All measurements were performed in triplicate. […] (B and C) Overlay of ^1H,^15N HSQC NMR spectra of nSH2 (B) and cSH2 (C) alone (in yellow) and in the presence of 2 molar equivalents of the pK15 12mer peptide (blue), measured with a 600 MHz spectrometer at 298 K. The protein concentration was 100 μM and the buffer contained 100 mM MES, 150 mM NaCl, 3 mM TCEP, pH 6.5. (D and E) Excerpts from ^1H-^15N HSQC spectra of nSH2 (D) and cSH2 (E) upon addition of increasing concentrations of the pK15 12mer peptide.
Next, we used Nuclear Magnetic Resonance (NMR) spectroscopy to further compare the interaction of the phosphorylated pK15 12mer to the isolated nSH2 and cSH2 domains (Fig 5B–5E). We recorded ^1H-^15N HSQC spectra of each of the two domains in the presence of increasing concentrations of the pK15 peptide. […] In light of this, it is conceivable that the preference of pK15 CT for cSH2 in vivo may be determined by kinetic rather than thermodynamic factors.
NMR experiments were recorded at 298 K on a 600-MHz Bruker Avance III-HD spectrometer equipped with an inverse HCN cryogenic probehead (nitrogen-cooled) and running Topspin 3.2 software. […] NMR data were processed in Topspin and analysed in CcpNmr Analysis v2.4 [74].

[1] = test system: full-length PLCγ1 R586L or R694L; assay: GST-pulldown, full-length PLCγ1 R586L or R694L; format: binding; settings: phosphorylated; full-length PLCγ1, HEK 293T; versus WT
Procedure: Fig 3 Contribution of individual PLCγ1 SH2 domains to the interaction with phosphorylated pK15. The pK15 CT fused to GST, its Y^481F mutant, or GST alone were bound to glutathione beads, phosphorylated in vitro (+) or left unphosphorylated (-), and a GST pulldown was performed 32h after transfection into HEK-293T cells of expression vectors for S-tagged full-length PLCγ1 (FL) (A) or PLCγ1 SA (B) containing the indicated mutations. (C) pK15 CT WT, its Y^481F mutant or GST were bound to glutathione beads, phosphorylated in vitro (+) or left unphosphorylated (-), and used for a GST pulldown assay 32h after transfecting HEK 293T cells with expression vectors for S-tagged individual PLCγ1 nSH2 or cSH2 domains. […]
HEK293T cells were washed once with cold PBS 30 hours after transfection, lysed in IP buffer (50 mM Tris pH7.6, 60 mM NaCl, 6.25 mM EDTA, 1% (v/v) glycerol, 0.04% (v/v) NP-40) on ice for 30 minutes, sonicated shortly and cleared by centrifugation for 10 minutes at 20.000g, 4°C. […] Beads were then washed 5 times in 500 μl IP buffer (or for purified proteins IP buffer with 200 mM NaCl), suspended in 10 μl of 5x Laemmli sample buffer (60 mM Tris pH6.8, 24% (v/v) glycerol, 2% (v/v) SDS, 5% (v/v) β-mercaptoethanol, 0.01% Bromphenol Blue) and analysed by western blot.

With “DDLpYEEVLFPRN [pK15 12mer, phosphorylated peptide representing the last 12 amino acids of pK15 CT (DDLp…)]” the NMR exchange regime (PLCγ1 cSH2) was “fast exchange regime”.

B1: pK15 CT^WT: pK15 cytoplasmic tail fused to GST at its N-terminal end, phosphorylated in vitro by Src (protein)
chain: SQLLNEVELQEVNRDPPNVFGYASILVSGAEESREPSPQPDQSGMSILRVDGGSAFRIDTAQAATQPTDDLYEEVLFPRN
modifications: tyrosine-phosphorylated in vitro by Src; sites not stated for this construct; left off: GST, N-terminal, kept
For B1, the “binding of mutants (GST-pulldown)” value [1] was “moderately reduced binding”.
